# Test results published in US20230114123A1, “METHOD OF STIMULATING ASYMMETRIC DIVISION OF SATELLITE STEM CELLS” (Ottawa Hospital Research Institute, priority 2017, published 2023).
# Legend:
# Format in all cases: cell-based, mouse
# [1] = test system: mdx satellite cells; assay: Myog-expressing / myogenic cells on mdx myofibers at 72 h; conditions: 72 h of mdx myofiber culture, FIG. 4D
# Procedure: EDL fiber Culture and siRNA Transfection. […] Briefly, EDL were carefully dissected and incubated in DMEM with 2% L-glutamine, 4.5% glucose, and 110 mg/mL sodium pyruvate (Gibco) containing 0.2% collagenase I (Sigma) for 45 min. Myofibers were isolated using gentle trituration with a glass pipet. Myofibers were cultured for 36, 42, or 72 h in DMEM containing 20% FBS (Wisent), 1% chick embryo extract (MP Biomedicals), and 2.5 ng/ml bFGF (Cedarlane). For pharmacological inhibition, Lapatinib ditosylate (1 mM in DMSO; Santa
# Cruz Biotechnology), PTP1b inhibitor CAS 765317-72-4 (10 mM in DMSO; Santa Cruz Biotechnologies) was added to the culture medium for a final concentration of 1 μM or 10 μM, respectively; equal dilution of DMSO was used as vehicle control.
# [2] = test system: satellite cells; assay: Mitotic orientation by p-Aurk centrosome staining, EDL myofibers 36 h; conditions: 36 h culture, recombinant EGF vs vehicle, FIGS. 2B and 2C
# Procedure: The inventors cultured single EDL myofibers for 36 h and satellite cell centrosomes were detected by immunostaining for phosphorylated aurora kinase (p-Aurk).
# Characterization of Satellite Cell Divisions. The orientation of mitotic spindles in satellite cells was measured as described in Dumont et al. (2015). Single myofibers were fixed after 36 h of in vitro culture, as described above. Satellite cells were identified by Pax7 expression in the nucleus, as detected by immunofluorescene. Pax7 staining becomes cytoplasmic in mitotic satellite cells after the dissociation of the nuclear envelope, but is still discernable. Mitotic satellite cells were identified by positive p-Aurk staining, which labels cells from pro-metaphase to cytokinesis. Mitotic satellite cells with p-Aurk staining patterns that were not observed in WT cells, including monopolar, multipolar (>2), and abscission defects were quantified as abnormal. Mitotic orientations were manually counted according to the angle between the mitotic spindle and the tangential plane of the satellite cell's attachment point to the myofiber.
# [3] = test system: phosphorylated EGFR (p-EGFR); assay: p-EGFR immunostaining of mdx EDL myofibers; conditions: 1 h with or without recombinant EGF 100 ng/mL, FIG. 3A
# Procedure: Therefore, the inventors conclude that that EGFR signaling occurs normally in mdx satellite cells.
# To assess the signaling status of EGFR in quiescent satellite cells, EDL muscles were fixed in 4% PFA immediately post-dissection. Myofiber bundles were teased from the fixed muscles by tweezers.
# Immunostaining and Antibodies. EDL myofibers were fixed for 10 min in 2% PFA and washed with PBS. Fibers were blocked and permeablized in horse serum blocking buffer (5% horse serum, 1% BSA (Sigma), and 0.5% Triton X-100 (Sigma) in PBS) for 1 h at room temperature or at 4° C. over night. Primary antibodies were applied in blocking solution for 2 h at room temperature or at 4° C. over night. Samples were subsequently washed with PBS and stained with appropriate fluorescently labeled secondary antibodies (Alexa fluor 488, 546, or 647) for 1 h at room temperature. After washing with PBS, samples were mounted with Permafluor (Fisher).
# [4] = test system: mdx satellite cells; assay: Mitotic orientation by p-Aurk staining, mdx myofibers 36 h; conditions: 36 h culture, recombinant EGF vs vehicle, FIG. 3B
# Procedure: However, the rate of abnormal cell divisions in mdx satellite cells as evidenced by abnormal patterns of p-Aurk staining was unaffected by EGF stimulation. This observation implies that cell cycle dysregulation is not completely rescued by polarity signaling alone. […] Therefore, to assess whether EGF-driven asymmetric divisions could ameliorate the reduced generation of myogenic progenitors in mdx cultures, single EDL myofibers from mdx mice were cultured for 72 h and immunostained for the expression of Myog.
# Characterization of Satellite Cell Divisions. The orientation of mitotic spindles in satellite cells was measured as described in Dumont et al. (2015). Single myofibers were fixed after 36 h of in vitro culture, as described above. Satellite cells were identified by Pax7 expression in the nucleus, as detected by immunofluorescene. Pax7 staining becomes cytoplasmic in mitotic satellite cells after the dissociation of the nuclear envelope, but is still discernable. […] Mitotic satellite cells with p-Aurk staining patterns that were not observed in WT cells, including monopolar, multipolar (>2), and abscission defects were quantified as abnormal. Mitotic orientations were manually counted according to the angle between the mitotic spindle and the tangential plane of the satellite cell's attachment point to the myofiber.
substance,measurement,setting,value
"EGF: human recombinant EGF protein (Life Technologies), direct activator of the EGFR pathway",increase in total numbers of myogenic cells,[1],about 14%
same,increase in the proportion of mitotic cells aligned along the apicobasal axis,[2],50%
same,p-EGFR staining in mdx fibers,[3],P-EGFR was only observed in mdx fibers treated with EGF
same,"numbers of apicobasal orientated mitotic centrosomes, mdx satellite cells",[4],increased numbers of apicobasal orientated mitotic centrosomes
same,"rate of abnormal cell divisions (abnormal patterns of p-Aurk staining), mdx satellite cells",[4],unaffected
